In article PMC4189262 (Pharmacognosy Magazine, 2014):

Legend:
[1] = test system: human CYP1A2; details: ref Shimada et al. [26]; cited from earlier work
[2] = test system: isolated rat hepatocytes; assay: Lactate dehydrogenase; assay type: cell-based; details: 60 μM, hepatocytes incubation, vs control
[3] = test system: isolated rat hepatocytes; assay: Glutathione; assay type: cell-based; details: 60 μM, hepatocytes incubation, vs control
[4] = test system: isolated rat hepatocytes; assay: Malondialdehyde; assay type: cell-based; details: 60 μM, hepatocytes incubation, vs control
[5] = test system: isolated rat hepatocytes; assay: Trypan blue exclusion; details: 60 μM, hepatocytes incubation, vs control
[6] = test system: rat pheochromocytoma PC12 cells; details: limited supply of serum and hydrogen peroxide, ref Hong et al. [14]; cited from earlier work

## O=c1cc(-c2ccc(O)cc2)oc2cc(O)cc(O)c12 [apigenin]
[1]
  inhibitory activity on human CYP1A2: inhibitory activity

## Cn1c(CCCC(=O)O)nc2cc(N(CCCl)CCCl)ccc21 [Bendamustine]
[2]
  increased LDH leakage: 59%
[3]
  depletion of cell GSH: 76%
[4]
  increased MDA level: 194%
[5]
  reduction of cell viability: 33%

## COc1cc(O)c2c(=O)c(O)c(-c3ccc(O)cc3)oc2c1 [rhamnocitrin, kempferol 7-O-methyl ether]
[6]
  protective effects on oxidative damage: protective effects

## O=c1cc(-c2ccccc2)oc2cc(O)cc(O)c12 [chrysin]
[1]
  inhibitory activity on human CYP1A2: inhibitory activity

## O=c1c(O)c(-c2ccccc2)oc2cc(O)cc(O)c12 [galangin]
[1]
  inhibitory activity on human CYP1A2: inhibitory activity

## O=c1c(-c2ccc(O)cc2)coc2cc(O)cc(O)c12 [genistein]
[1]
  inhibitory activity on human CYP1A2: inhibitory activity

## O=P1(N(CCCl)CCCl)NCCCO1 (stereo not drawn) [Cyclophosphamide]
[2]
  increased LDH leakage: 100%
[3]
  depletion of cell GSH: 72%
[4]
  increased MDA level: 184%
[5]
  reduction of cell viability: 43%

## O=c1c(O)c(-c2ccc(O)cc2)oc2cc(O)cc(O)c12 [kaempferol]
[6]
  protective effects on oxidative damage: protective effects
[1]
  inhibitory activity on human CYP1A2: inhibitory activity
